Experimental data reported in patent publication US6972111B1, “Rosin amine anti-fouling agents” (Bayer Aktiengesellschaft, priority 1999, dated 2005).

System: cyprid larvae of the barnacle Balanus amphitrite
Assay: Settlement assay of cyprid larvae of the barnacle Balanus amphitrite
Format: in vivo
Details: cyprid larvae in seawater test solution, 27° C.±2; Spearman-Kärber method
Method: The rate of settlement of laboratory reared cyprid larvae of the barnacle Balanus amphitrite was determined for testing the activity of candidate anti-fouling compounds. Settlement Assay Tests are carried out in four replicates in sterile polystyrene multi well plates. Between 25 and 40 cyprid larvae are injected in the dishes containing either 2 ml of test solution (see below), solvent control or a positive control (Dichloro-n-octyl-isothiazolinone). Dishes are incubated for 24 h at a temperature of 27° C.±2. After incubation the cyprids are screened for signs of toxicity. Larvae are classified in three categories: A) alive and swimming; B) alive but not active; C) dead. The test is terminated by addition of a drop of 20% formaldehyde and the numbers of settled and non-settled larvae are counted. Settlement is evaluated as follows: 1) Non settled: not attached free swimming cyprids; 2) settled cyprids: attached, but not metamorphosed cyprids; 3) barnacles: attached juvenile barnacles. Categories 2 and 3 are considered to be settled. Percentage settlement in test solution is compared with controls. Estimates of the median effect concentration (EC-50) after […]. are calculated using the Spearman-Kärber method. All seawater used is of natural origin and filtered unto 0.2 micron. […]

CCCCCCCCn1sc(Cl)c(Cl)c1=O [reference*, 4,5-dichloro-n-octylisothiazolinone]
EC50 for settlement inhibition in ppm: 0.37 ppm
